In brackets after ≈: the same amount, converted by molar mass.
system: Bacillus subtilis ATCC 6633; assay: Broth microdilution MIC/MBC; format: cell-based; settings: not given
Excerpt: Detailed procedures are presented in the Supplementary Materials. […]
(§1) In vitro antimicrobial activity assays - Methodology
(§2) The examined compounds 1 - 24 were screened in vitro for antibacterial and antifungal activities using the broth microdilution method according to procedure reported earlier by our research group and European Committee on Antimicrobial Susceptibility Testing (EUCAST) and Clinical and Laboratory Standards Institute (CLSI) guidelines against a panel of reference and clinical or saprophytic strains of microorganisms, in-cluding Gram-positive bacteria, Staphylococcus aureus ATCC 43300 (Methicillin Resistant S. aureus – MRSA), Staphylococcus aureus ATCC 29213 (Methicillin Susceptible S. aureus – MSSA), Staphylococcus epidermidis ATCC 12228, Enterococcus faecalis ATCC 29212, Micro-coccus luteus ATCC 10240, Bacillus subtilis ATCC 6633 and Bacillus cereus ATCC 10876), Gram-negative bacteria (Bordetella bronchiseptica ATCC 4617, Escherichia coli ATCC 25922, Klebsiella pneumoniae ATCC 13883, Proteus mirabilis ATCC 12453, Salmonella typhimurium ATCC 14028 and Pseudomonas aeruginosa ATCC 9027) and fungi belonging to yeasts (Can-dida albicans ATCC 10231, Candida albicans ATCC 2091, Candida parapsilosis ATCC 22019, Candida glabrata ATCC 90030 and Candida krusei ATCC 14243). The microorganisms be-longing to ATCC came from American Type Culture Collection, routinely used for the evaluation of antimicrobials. All the used microbial cultures were first subcultured on nu-trient agar or Sabouraud agar at 35°C for 18-24 h or 30°C for 24-48 h for bacteria and fungi, […]
(§3) The surface of Mueller-Hinton agar (for bacteria) and RPMI 1640 with MOPS (for fungi) were inoculated with the suspensions of bacterial or fungal species. Microbial suspensions were prepared in sterile saline with an optical density of McFarland standard scale 0.5.
(§4) Samples containing examined compounds were dissolved in dimethyl sulfoxide (DMSO).
(§5) Furthermore, bacterial and fungal suspensions were put onto Petri dishes with solid me-dia containing 2 mg/mL of the tested compounds followed incubation at 37°C for 24h and 30°C for 48h for bacteria and fungi, respectively. The inhibition of microbial growth was judged by comparison with a control culture prepared without any sample tested. Ciprof-loxacin, vancomycin, nitrofurantoin, cefuroxime, ampicillin or nystatin (Sigma) were used as a reference antibacterial or antifungal compounds, respectively.
(§6) Subsequently, the MIC (Minimal Inhibitory Concentration) of the compounds was ex-amined by the microdilution broth method, using their two-fold dilutions in Mueller- […]
(§7) Hinton broth or (for bacteria) and RPMI 1640 broth with MOPS (for fungi) prepared in 96-well polystyrene plates. Final concentrations of the compounds ranged from 1000 to 0.488 µg/ml. Microbial suspensions were prepared in 0.85% NaCl with an optical density of 0.5 McFarland standard. Next each bacterial or fungal suspension was added per each well containing broth and various concentrations of the examined compounds. After incuba-

Row | MBC/MIC | SMILES
1 | 4 | COc1ccc(/C=N/NC(=O)c2ccc(O)cc2O)cc1Cl [Compound 9, N-[(3-chloro-4-methoxyphenyl)methylidene]-2,4-dihydroxybenzohydrazide]

same assay, conditions: ATCC6633

Row | SMILES | MBC [µg/mL]
2 | COc1ccc(/C=N/NC(=O)c2ccc(O)cc2O)cc1Cl [Compound 9, N-[(3-chloro-4-methoxyphenyl)methylidene]-2,4-dihydroxybenzohydrazide] | 500 (≈ 1560 µM)

same assay, conditions: ATCC6633, read-out: MIC

Row | MIC [µg/mL] | SMILES
3 | 125 (≈ 390 µM) | COc1ccc(/C=N/NC(=O)c2ccc(O)cc2O)cc1Cl [Compound 9, N-[(3-chloro-4-methoxyphenyl)methylidene]-2,4-dihydroxybenzohydrazide]

system: Escherichia coli ATCC 25922; assay: Broth microdilution MIC/MBC; format: cell-based; settings: ATCC25922
Excerpt: as §1, §2, §3, §4, §5, §6, §7

Row | MIC [µg/mL] | SMILES
4 | > 1000 | COc1ccc(/C=N/NC(=O)c2ccc(O)cc2O)cc1Cl [Compound 9, N-[(3-chloro-4-methoxyphenyl)methylidene]-2,4-dihydroxybenzohydrazide]

system: Enterococcus faecalis ATCC 29212; assay: Broth microdilution MIC/MBC; format: cell-based; settings: not given
Excerpt: as §1, §2, §3, §4, §5, §6, §7

Row | MBC/MIC | SMILES
5 | 4 | COc1ccc(/C=N/NC(=O)c2ccc(O)cc2O)cc1Cl [Compound 9, N-[(3-chloro-4-methoxyphenyl)methylidene]-2,4-dihydroxybenzohydrazide]

same assay, conditions: ATCC29212, read-out: MBC

Row | SMILES | MBC [µg/mL]
6 | COc1ccc(/C=N/NC(=O)c2ccc(O)cc2O)cc1Cl [Compound 9, N-[(3-chloro-4-methoxyphenyl)methylidene]-2,4-dihydroxybenzohydrazide] | 500 (≈ 1560 µM)

same assay, conditions: ATCC29212, read-out: MIC

Row | MIC [µg/mL] | SMILES
7 | 125 (≈ 390 µM) | COc1ccc(/C=N/NC(=O)c2ccc(O)cc2O)cc1Cl [Compound 9, N-[(3-chloro-4-methoxyphenyl)methylidene]-2,4-dihydroxybenzohydrazide]

system: Bacillus cereus ATCC 10876; assay: Broth microdilution MIC/MBC; format: cell-based; settings: not given
Excerpt: as §1, §2, §3, §4, §5, §6, §7

Row | MBC/MIC | MIC [µg/mL] | SMILES
8 | 4 | 15.62 (≈ 48.7 µM) | COc1ccc(/C=N/NC(=O)c2ccc(O)cc2O)cc1Cl [Compound 9, N-[(3-chloro-4-methoxyphenyl)methylidene]-2,4-dihydroxybenzohydrazide]

same assay, conditions: ATCC10876

Row | SMILES | MBC [µg/mL]
9 | COc1ccc(/C=N/NC(=O)c2ccc(O)cc2O)cc1Cl [Compound 9, N-[(3-chloro-4-methoxyphenyl)methylidene]-2,4-dihydroxybenzohydrazide] | 62.5 (≈ 195 µM)

same assay, conditions: ATCC10876, read-out: MIC

Row | MIC [µg/mL] | SMILES
10 | 15.6 (≈ 48.7 µM) | COc1ccc(/C=N/NC(=O)c2ccc(O)cc2O)cc1Cl [Compound 9, N-[(3-chloro-4-methoxyphenyl)methylidene]-2,4-dihydroxybenzohydrazide]

system: Bordetella bronchiseptica ATCC 4617; assay: Broth microdilution MIC/MBC; format: cell-based; settings: ATCC4617
Excerpt: as §1, §2, §3, §4, §5, §6, §7

Row | MIC [µg/mL] | SMILES
11 | > 1000 | COc1ccc(/C=N/NC(=O)c2ccc(O)cc2O)cc1Cl [Compound 9, N-[(3-chloro-4-methoxyphenyl)methylidene]-2,4-dihydroxybenzohydrazide]

system: Klebsiella pneumoniae ATCC 13883; assay: Broth microdilution MIC/MBC; format: cell-based; settings: ATCC13883
Excerpt: as §1, §2, §3, §4, §5, §6, §7

Row | MIC [µg/mL] | SMILES
12 | > 1000 | COc1ccc(/C=N/NC(=O)c2ccc(O)cc2O)cc1Cl [Compound 9, N-[(3-chloro-4-methoxyphenyl)methylidene]-2,4-dihydroxybenzohydrazide]

system: Candida albicans ATCC 2091; assay: Broth microdilution MIC/MFC; format: cell-based; settings: ATCC2091, read-out: MIC
Excerpt: as §1, §2, §3, §4, §5, §6, §7

Row | MIC [µg/mL] | SMILES
13 | > 1000 | COc1ccc(/C=N/NC(=O)c2ccc(O)cc2O)cc1Cl [Compound 9, N-[(3-chloro-4-methoxyphenyl)methylidene]-2,4-dihydroxybenzohydrazide]

system: Candida parapsilosis ATCC 22019; assay: Broth microdilution MIC/MFC; format: cell-based; settings: Lodderomyces parapsilosis, ATCC22019, read-out: MIC
Excerpt: as §1, §2, §3, §4, §5, §6, §7

Row | MIC [µg/mL] | SMILES
14 | > 1000 | COc1ccc(/C=N/NC(=O)c2ccc(O)cc2O)cc1Cl [Compound 9, N-[(3-chloro-4-methoxyphenyl)methylidene]-2,4-dihydroxybenzohydrazide]

system: Candida krusei ATCC 14243; assay: Broth microdilution MIC/MFC; format: cell-based; settings: Pichia kudriavzevii, ATCC14243, read-out: MIC
Excerpt: as §1, §2, §3, §4, §5, §6, §7

Row | MIC [µg/mL] | SMILES
15 | > 1000 | COc1ccc(/C=N/NC(=O)c2ccc(O)cc2O)cc1Cl [Compound 9, N-[(3-chloro-4-methoxyphenyl)methylidene]-2,4-dihydroxybenzohydrazide]

system: Candida glabrata ATCC 90030; assay: Broth microdilution MIC/MFC; format: cell-based; settings: Nakaseomyces glabratus, ATCC90030, read-out: MIC
Excerpt: as §1, §2, §3, §4, §5, §6, §7

Row | MIC [µg/mL] | SMILES
16 | > 1000 | COc1ccc(/C=N/NC(=O)c2ccc(O)cc2O)cc1Cl [Compound 9, N-[(3-chloro-4-methoxyphenyl)methylidene]-2,4-dihydroxybenzohydrazide]

— article PMC10743905, “Design, Synthesis, and In Vitro and In Vivo Bioactivity Studies of Hydrazide–Hydrazones of 2,4-Dihydroxybenzoic Acid” (International Journal of Molecular Sciences, 2023)
